According to patent US5328913A, “Minoxidil analogs as inhibitors of cell proliferation and lysyl hydroxylase” (priority 1992, dated 1994):
“Also recorded” adds a separate entry of the source.

Experiments:
Format in all cases: cell-based
lysyl hydroxylase [1] = experiment: Lysyl hydroxylase activity in extracts of treated human skin fibroblasts (Example 1, tritium-release assay); conditions: for Lysyl hydroxylase activity (%) / effect on lysyl hydroxylase activity (in words): 72 h; for Lysyl hydroxylase activity (%): 1% ethanol; for effect on lysyl hydroxylase activity (in words): cultured fibroblasts, Example 1; for increase of the level of lysyl hydroxylase activity: 72 h (Table I text)
Description: (§1) Cultures of human skin fibroblasts grown to confluence were incubated for 72 h in medium supplemented with 1% ethanol containing various concentrations of minoxidil or deoxyminoxidil as indicated. Cells were then harvested, and the enzyme activities in extracts of these cells were measured by tritium-release assays (Murad and Pinnell, J. Biol. Chem. 262:11,973 (1987)). The results are expressed as percentages of zero-concentration values.
as §1, with “with 1% acetone containing various concentrations of minoxidil sulfate,” for “deoxyminoxidil”, “tritium release” for “tritium-release”
Skin fibroblast cultures derived from an apparently normal child (GM05659) were obtained from the Institute for Medical Research, Camden, N.J. The cells were subcultured by trypsinization and used before 25 population doublings. Typically, 4×10^5 cells were seeded onto 100-mm (diameter) plastic petri dishes and allowed to grow in 10 ml of Dulbecco's modified Eagle's minimum essential medium containing 5.6 mM glucose, buffered in pH 7.4 with 24 mM sodium biocarbonate/25 mM Hepes and supplemented with 20% (v/v) calf serum which had been inactivated for 30 min at 56° C. The cells were incubated at 37° C. in a humidified atmosphere of 5% CO2 plus 95% air.
After a week, the medium was replaced with medium supplemented with 0.5% heat-inactivated diaylzed calf serum, and the incubation was continued for 72 h in the presence of minoxidil or one of its structural analogs. The compounds were dissolved in 95% ethanol, except minoxidil sulfate which was dissolved in acetone; the final solvent concentration was 1% (v/v). During the last 3 h of incubation, cells received 100 μM Na L-ascorbate to ensure complete hydroxylation of the polypeptide precursors of precollagen (Murad et al, J. Invest. Dermatol. 75:404 (1980)).
The medium was then removed and the cells were washed twice with a solution containing 0.14 M NaCl, 5 mM KCl, 0.3 mM Na2 PO4, and 0.4 mM KH2 PO4, adjusted to pH 7.4. The cells were detached from the plates with a solution containing 0.05% trypsin, 0.54 mM EDTA, 5.5mM glucose, 6.90mM NaHCO3, […], and 5 mM KCl. The trypsinization was terminated with 2 vol of 20% serum-supplemented medium, and the cell number in an aliquot of the suspension was determined using a Coulter counter.
The detached cells were collected by centrifugation at 500g for 6 min at 4° C. washed twice by suspending in phosphate-buffered NaCl/KCl as above, and then centrifuged. The cell pellet was suspended in a medium (1 ml/5×10^6 cells) containing 0.2 M NaCl, 0.1 M glycine, 50 μM dithiothreitol, 20 mM Tris-HCl, buffer (pH 7.5), 0.1% Triton X-100, and 0.01% soybean trypsin inhibitor. The suspension was sonicated for 30 s using a Branson sonifier cell disrupter. The lysate was centrifuged at 27,000g for 1 h at 4° C., and the resulting supernatant was used for prolyl and lysyl hydroxylase assays (Murad and Pinnell, J. Biol. Chem. 262:11, 973 (1987)). The enzyme activities are based on a unit of soluble cell protein.
The protein content of cell extracts was determined by a dye-binding technique using Bio-Rad reagent and protein standard (Bradford, Anal. Biochem. 72:248 (1976)).
Note: Cultures of human skin fibroblasts grown to confluence were
incubated for 72 h in medium supplemented with 1% ethanol containing 1 mM
of the indicated compounds. Cells were then harvested, and the enzyme
activity in extracts of these cells was measured by a tritiumrelease
incubated for 72 h in medium supplemented with 1% ethanol containing 1 nM

lysyl hydroxylase [2] = experiment: as above
lysyl hydroxylase [3] = experiment: Lysyl hydroxylase activity in extracts of treated human skin fibroblasts (Example 2, pyridine, triazine and N-alkyl analogs); conditions: for IC50: 72 hr (FIG. 4, FIG. 5), read-out: concentration giving 50% inhibition (lysyl hydroxylase)
Description: (§2) Cells were treated for 72 hr with minoxidil or its triazine analog at the indicated concentrations. The enzyme activities in extracts of treated cells were measured by tritium release assays (Murad and Pinnell, J. Biol. Chem. 262:11,973 (1987)) and are expressed as a percentage of zero-concentration values. PH, prolyl hydroxylase; LH, lysyl hydroxylase.
Cells were treated for 72 hr with various concentrations of minoxidil or its N-alkyl analogs as indicated. The enzyme activity in extracts of treated cells was measured by tritium release assays (Murad and Pinnell, J. Biol. Chem. 262:11,973 (1987)) and is expressed as a percentage of zero-concentration value. The minoxidil curve is reproduced from FIG. 4.
Cultures of human skin fibroblast (1.5×10^6 cells) were seeded onto 100-mm plates and incubated at 37° in Dulbecco's modified Eagle's medium supplemented with 20% calf serum. After 24 hr, the medium was replaced with medium supplemented with 0.5% heat-inactivated dialyzed calf serum. The incubation was continued for an additional 72 hr in the presence of 0.1-2 μM minoxidil analogs dissolved in 0.12N HCl; the final concentration of HCl was 0.0012N or 0.0024N. Cells treated with HCl only served as control. During the last 3 hr of incubation, cells received […] ascorbic acid to ensure complete hydroxylation of the polypeptide precursors of procollagen (Murad et al, J. Invest. Dermatol. 75:404 (1980)). At the end of the incubation period, cells were harvested by trypsinization and disrupted by sonication in a buffered medium (Murad et al, J. Biol. Chem. 262:11,973 (1987)).
(§3) Lysyl hydroxylase activity in extracts of treated cells was measured with an underhydroxylated procollagen substrate (Murad et al, J. Biol. Chem. 262:11,973 (1987)), which was prepared by labeling cultures of human skin fibroblasts with L-[4,5-^3 H]lysine in the presence of an iron chelator α,α'-dipyridyl (Murad and Pinnell, Conn. Tiss. Res. 13:181 (1985)). The amount of tritium released was quantitated as ^3 HO after vacuum distillation . Prolyl hydroxylase activity was similarly measured with an underhydroxylated procollagen substrate containing L-[4-^3 H]proline (Murad and Pinnell, J. Biol. Chem. 262:11973 (1987); Murad and Pinnell, Conn. Tiss. Res. 13:181 (1985)). The enzyme activities are based on a unit of soluble cell protein. The protein content of cell extracts was determined by a dye-binding techniques using Bio-Rad reagents (Bradford, Anal. Biochem. 72:248 (1976)).
Cells were treated for 72 hr with 1 mM minoxidil or its
structural analogs as indicated. The enzyme activity in extracts
of treated cells was measured by a tritium-release assay and is
expressed as a percentage of HCl-treated control.

prolyl hydroxylase = experiment: Prolyl hydroxylase activity in extracts of treated human skin fibroblasts (Example 2); conditions: 72 hr; N,N-diethyl analog up to 2 mM
Description: as §2
Cultures of human skin fibroblast (1.5×10^6 cells) were seeded onto 100-mm plates and incubated at 37° in Dulbecco's modified Eagle's medium supplemented with 20% calf serum. After 24 hr, the medium was replaced with medium supplemented with 0.5% heat-inactivated dialyzed calf serum. […] Cells treated with HCl only served as control. […]
as §3, with “The enzyme activities are based on a unit of soluble cell protein. The protein content of cell extracts was determined by a dye-binding techniques using Bio-Rad reagents (Bradford, Anal. Biochem. 72:248 (1976)).” left out

[4] = 1 mM, % of solvent-treated controls (Table I)
[5] = 1 nM, % of ethanol-treated controls (Table II)

CC1(C)CCC=[N+]1[O-] [5,5-Dimethyl-1-pyrroline-N-oxide]
Lysyl hydroxylase activity (%) (lysyl hydroxylase [1]; [4]): 103%

[O-][n+]1ccc(-c2ccccc2)cc1 [4-Phenylpyridine-N-oxide]
Lysyl hydroxylase activity (%) (lysyl hydroxylase [2]; 0.3 mM, dissolved in ethanol, final concentration 0.3%, 72 h, % of solvent-treated controls (Table I)): 99%

O=C(O)c1cc[n+]([O-])cc1 [Isonicotinic acid N-oxide]
Lysyl hydroxylase activity (%) (lysyl hydroxylase [2]; 1 mM, dissolved in aqueous medium, 72 h, % of solvent-treated controls (Table I)): 90%

Cc1c([N+](=O)[O-])c(N2CCCCC2)nc(N)[n+]1[O-] [Compound VI (Table II)]
Lysyl hydroxylase activity (%) (lysyl hydroxylase [1]; [5]): 34% | effect on lysyl hydroxylase activity (in words) (lysyl hydroxylase [1]): no significant effect on its inhibitory activity

Nc1nc(N2CCCCC2)nc(N)[n+]1[O-] [Compound II (Table III)]
IC50 (lysyl hydroxylase [3]): ~800 µM | effect on lysyl hydroxylase activity (in words) (lysyl hydroxylase [3]; 72 hr, Example 2, listed as triazine analog): no significant effect up to 0.2 mM; also recorded: less potent than minoxidil | effect on prolyl hydroxylase activity (in words) (prolyl hydroxylase): failure to decrease the activity of prolyl hydroxylase

CN1CCN(c2cc(N)[n+]([O-])c(N)n2)CC1 [Compound IX (Table II)]
effect on lysyl hydroxylase activity (in words) (lysyl hydroxylase [1]): inactive | Lysyl hydroxylase activity (%) (lysyl hydroxylase [2]; 0.1 mM, dissolved in HCl, final concentration 0.0012 N, 72 h (Table II footnote a)): 109%

Cc1cc(N2CCOCC2)nc(N)[n+]1[O-] [Compound VIII (Table II)]
Lysyl hydroxylase activity (%) (lysyl hydroxylase [1]; [5]): 91% | effect on lysyl hydroxylase activity (in words) (lysyl hydroxylase [1]): inactive

Nc1[nH]c(=O)c2nc[nH]c2[n+]1[O-] [Guanine 3-N-oxide]
increase of the level of lysyl hydroxylase activity (lysyl hydroxylase [1]): 30-40% | Lysyl hydroxylase activity (%) (lysyl hydroxylase [2]; 1 mM, dissolved in NaOH, final concentration 0.001 N, 72 h, % of solvent-treated controls (Table I)): 132%

CC1(C)CC(O)CC(C)(C)N1[O] [4-Hydroxy-2,2,6,6-tetramethylpiperidine-N-oxyl]
Lysyl hydroxylase activity (%) (lysyl hydroxylase [1]; [4]): 130% | increase of the level of lysyl hydroxylase activity (lysyl hydroxylase [1]): 30-40%

Cc1cc(N2CCCC2)nc(N)[n+]1[O-] [Compound VII (Table II)]
Lysyl hydroxylase activity (%) (lysyl hydroxylase [1]; [5]): 88% | effect on lysyl hydroxylase activity (in words) (lysyl hydroxylase [1]): inactive

CCN(CC)c1cc(N)[n+]([O-])c(N)n1 [Compound III (Table III)]
IC50 (lysyl hydroxylase [3]): ~1000 µM | effect on prolyl hydroxylase activity (in words) (prolyl hydroxylase): no significant effect on prolyl hydroxylase activity

[O-][n+]1cccc(O)c1 [3-Hydroxypyridine-N-oxide]
Lysyl hydroxylase activity (%) (lysyl hydroxylase [1]; [4]): 99%
